Like-named read-outs stand apart in the source and are kept apart here.

The text below walks through data of patent US20200247897A1, “THERAPEUTIC ANTIBODIES BASED ON MUTATED IGG HEXAMERS” (GENMAB B.V., priority 2017, published 2020).

One test relates to LS-411N. Put plainly: Drug combination screen (ATPlite, Synergy Score), LS-411N. It is filed as cell-based, human. Background: In ATP-based viability assays light output follows the ATP content of the culture.
The test system of a further test is SW480. Put plainly: Drug combination screen (ATPlite, Synergy Score), SW480. It is filed as cell-based, human.
For a further test, the system named is DLD-1. The test can be described thus: Drug combination screen (ATPlite, Synergy Score), DLD-1.
A further test has as its system HCT 116. Put plainly: Drug combination screen (ATPlite, Synergy Score), HCT 116.
The subject of another test is SNU-C2B. The test can be described thus: Drug combination screen (ATPlite, Synergy Score), SNU-C2B.
The mark [1] stands for this setting: compound in combination with IgG1-hDR5-01-G56T-E430G + IgG1-hDR5-05-E430G, LS-411N, 72 hour ATPlite, 6x6 matrix.
Setting [2] is: compound in combination with IgG1-hDR5-01-G56T-E430G + IgG1-hDR5-05-E430G, SW480, 72 hour ATPlite, 6x6 matrix.
[3] abbreviates: compound in combination with IgG1-hDR5-01-G56T-E430G + IgG1-hDR5-05-E430G, DLD-1, 120 hour ATPlite, 6x6 matrix.
The mark [4] stands for this setting: compound in combination with IgG1-hDR5-01-G56T-E430G + IgG1-hDR5-05-E430G, HCT 116, 120 hour ATPlite, 6x6 matrix.
[5] abbreviates: compound in combination with IgG1-hDR5-01-G56T-E430G + IgG1-hDR5-05-E430G, SNU-C2B, 72 hour ATPlite, 6x6 matrix.

On to `CC(=O)O[C@@]12CO[C@@H]1C[C@H](O)[C@@]1(C)C(=O)[C@H](O)C3=C(C)[C@@H](OC(=O)[C@H](O)[C@@H](NC(=O)OC(C)(C)C)c4ccccc4)C[C@@](O)([C@@H](OC(=O)c4ccccc4)[C@H]21)C3(C)C` [docetaxel], for which, in the test with LS-411N (setting [1]), the “Synergy Score LS-411N” value was determined as 36.2. In addition, in the test on SW480 (setting [2]), the “Synergy Score SW480” value was found to be 19.5. Besides, in the test with DLD-1 (setting [3]), the “Synergy Score DLD-1” value is listed as 17.6. For the same compound, in the test on HCT 116 (setting [4]), the “Synergy Score HCT-116” value was determined as 7.9. Besides, in the test with SNU-C2B (setting [5]), the “Synergy Score SNU-C2B” value is 15.8.
For `C=CCc1cccc(/C=N/NC(=O)CN2CCN(Cc3ccccc3)CC2)c1O` [PAC 1] the same measures were 2.9, 3.9, 10.6, 4.2 and 6.
In the same order, the values of `C[C@]12C=CC(=O)C=C1CC[C@@H]1[C@@H]2C(=O)C[C@@]2(C)[C@H]1CC[C@]2(O)C(=O)CO` [Prednisone] are 0.1, 0, 0.1, 0 and 0.2.
In the same order, the values of `C[C@H]1C[C@@H]2[C@H]([C@@H](O)C[C@@]3(C)[C@H]2CC[C@]3(O)C(=O)CO)[C@@]2(C)C=CC(=O)C=C12` [Methylprednisolone] are 0, 0, 0, 0 and 0.6.
As to `CC(C)(C)c1nc(-c2cccc(NS(=O)(=O)c3c(F)cccc3F)c2F)c(-c2ccnc(N)n2)s1` [Dabrafenib], in the test with LS-411N (setting [1]), the “Synergy Score LS-411N” value is 0.5. For the same compound, the “Synergy Score SW480” value in the test on SW480 (setting [2]) is recorded as 3.1. For the same compound, in the test with DLD-1 (setting [3]), the “Synergy Score DLD-1” value is given as 2.2. The “Synergy Score HCT-116” value with HCT 116 (setting [4]) is 0.7. Moreover, the “Synergy Score SNU-C2B” value in the test on SNU-C2B (setting [5]) worked out at 0.5.
Regarding `COCCNCc1ccc(-c2cc3nccc(Oc4ccc(NC(=S)NC(=O)Cc5ccc(F)cc5)cc4F)c3s2)nc1` [MGCD-265], the “Synergy Score LS-411N” value in the test on LS-411N (setting [1]) was 0.7. For the same compound, in the test on SW480 (setting [2]), the “Synergy Score SW480” value came to 0.5. For the same compound, the “Synergy Score DLD-1” value in the test with DLD-1 (setting [3]) turned out to be 0.2. Moreover, in the test on HCT 116 (setting [4]), the “Synergy Score HCT-116” value amounted to 0.1. The “Synergy Score SNU-C2B” value in the test with SNU-C2B (setting [5]) worked out at 3.1.
In the same order, the values of `C=CC(=O)Nc1ccc2ncnc(Nc3ccc(OCc4cccc(F)c4)c(Cl)c3)c2c1` [AST-1306] are 1.8, 0.9, 0.3, 0.1 and 0.7.
On to `Cn1cc(C2=C(c3cn(C4CCN(Cc5ccccn5)CC4)c4ccccc34)C(=O)NC2=O)c2ccccc21` [Enzastaurin], for which the “Synergy Score LS-411N” value with LS-411N (setting [1]) is given as 5.6. Moreover, the “Synergy Score SW480” value in the test on SW480 (setting [2]) was 6.3. For the same compound, the “Synergy Score DLD-1” value with DLD-1 (setting [3]) worked out at 0.9. In addition, the “Synergy Score HCT-116” value in the test on HCT 116 (setting [4]) turned out to be 0.6. The “Synergy Score SNU-C2B” value in the test with SNU-C2B (setting [5]) worked out at 0.5.
In the same order, the values of `COc1ccc(-c2ccc3c(N4CCOC[C@@H]4C)nc(N4CCOC[C@@H]4C)nc3n2)cc1CO` [AZD 8055] are 10, 3.9, 3, 1.7 and 12.2.
In the same order, the values of `CCc1c2c(nc3ccc(OC(=O)N4CCC(N5CCCCC5)CC4)cc13)-c1cc3c(c(=O)n1C2)COC(=O)[C@]3(O)CC` [irinotecan, reference compound] are 6.8, 24.7, 15, 4.4 and 13.4.
Take `CC[C@@]1(O)C(=O)OCc2c1cc1n(c2=O)Cc2cc3cc(O)ccc3nc2-1` [10-Hydroxycamptothecin]: the “Synergy Score LS-411N” value in the test with LS-411N is 16.9. Besides, in the test on SW480, the “Synergy Score SW480” value was determined as 30.1. For the same compound, the “Synergy Score DLD-1” value in the test on DLD-1 was determined as 21.9. Further, the “Synergy Score HCT-116” value in the test with HCT 116 is given as 9.6. For the same compound, in the test on SNU-C2B, the “Synergy Score SNU-C2B” value is listed as 12.4.
On to `CC[C@H](NC(=O)[C@H](C)NC)C(=O)N1C[C@@H](O)C[C@H]1Cc1c(-c2[nH]c3cc(F)ccc3c2C[C@@H]2C[C@H](O)CN2C(=O)[C@H](CC)NC(=O)[C@H](C)NC)[nH]c2cc(F)ccc12` [Birinapant, reference compound], for which the “Synergy Score LS-411N” value in the test with LS-411N (setting [1]) came out at 61.2. Further, the “Synergy Score SW480” value in the test on SW480 (setting [2]) was 54.5. Also, in the test on DLD-1 (setting [3]), the “Synergy Score DLD-1” value was 5.8. For the same compound, the “Synergy Score HCT-116” value in the test on HCT 116 (setting [4]) came to 16.4. For the same compound, the “Synergy Score SNU-C2B” value in the test with SNU-C2B (setting [5]) came out at 37.
On to TW-37, for which the “Synergy Score LS-411N” value in the test on LS-411N (setting [1]) is on record as 29.9. Further, the “Synergy Score SW480” value with SW480 (setting [2]) stood at 10.5. Further, in the test with HCT 116 (setting [4]), the “Synergy Score HCT-116” value was determined as 5.4.
On to `COc1cccc2c1C(=O)c1c(O)c3c(c(O)c1C2=O)C[C@@](O)(C(=O)CO)C[C@@H]3O[C@H]1C[C@H](N)[C@H](O)[C@H](C)O1` [Doxorubicin], for which, in the test on LS-411N (setting [1]), the “Synergy Score LS-411N” value is on record as 9.4. Also, the “Synergy Score SW480” value in the test with SW480 (setting [2]) came to 20.5. The “Synergy Score DLD-1” value in the test on DLD-1 (setting [3]) was 16.2. Besides, the “Synergy Score HCT-116” value with HCT 116 (setting [4]) turned out to be 4.6. Further, in the test on SNU-C2B (setting [5]), the “Synergy Score SNU-C2B” value amounted to 18.
For `CC1=C(C(=O)Nc2cc3cn[nH]c3cc2F)C(c2ccc(C(F)(F)F)cc2)CC(=O)N1` (stereo not shown) [Compound G5K429286A] the same measures were 9.8, 5.3, 4.9, 2.6 and 5.3.
In the same order, the values of IC-87114 are 0.2, 0, 0, 0.1 and 0.1.
For `CS(=O)(=O)c1ccc(C(=O)Nc2ccc(Cl)c(-c3ccccn3)c2)c(Cl)c1` [GDC-0449] the same measures were 0.2, 0.1, 0.1, 0 and 0.3.
Consider `N.N.O=C([O-])C1(C(=O)[O-])CCC1.[Pt+2]` [Carboplatin], for which, in the test on LS-411N (setting [1]), the “Synergy Score LS-411N” value turned out to be 12. Further, the “Synergy Score SW480” value in the test with SW480 (setting [2]) was found to be 19.5. Also, the “Synergy Score DLD-1” value in the test on DLD-1 (setting [3]) stood at 11.3. Moreover, the “Synergy Score HCT-116” value with HCT 116 (setting [4]) was determined as 5.8. In addition, in the test with SNU-C2B (setting [5]), the “Synergy Score SNU-C2B” value worked out at 11.6.
For `O=C1NC(=O)C(c2ccccc2[N+](=O)[O-])=C1Nc1ccc(O)c(Cl)c1` [SB 415286] the same measures were 2.1, 3.8, 0.4, 0.8 and 0.7.
For `Nc1cccc2c1C(=O)N(C1CCC(=O)NC1=O)C2=O` (stereo not shown) [Pomalidomide] the same measures were 0, 0, 0.1, 0 and 0.5.
In the same order, the values of `COCCn1c2c([n+](Cc3cnccn3)c1C)C(=O)c1ccccc1C2=O` [YM155] are 9, 12.1, 5.2, 0.5 and 11.5.
Consider `Cn1c(Nc2ccc(C(F)(F)F)cc2)nc2cc(Oc3ccnc(-c4ncc(C(F)(F)F)[nH]4)c3)ccc21` [RAF265], for which, in the test with LS-411N (setting [1]), the “Synergy Score LS-411N” value was found to be 10.5. Further, the “Synergy Score SW480” value in the test with SW480 (setting [2]) turned out to be 4.5. Moreover, the “Synergy Score DLD-1” value in the test with DLD-1 (setting [3]) was 5.6. Moreover, in the test on HCT 116 (setting [4]), the “Synergy Score HCT-116” value came to 2.5. In the test on SNU-C2B (setting [5]), the “Synergy Score SNU-C2B” value was determined as 3.7.
In the same order, the values of `C[C@@H]1CCN(C(=O)CC#N)C[C@@H]1N(C)c1ncnc2[nH]ccc12` [CP-690550] are 0.6, 0, 0.1, 0 and 0.1.
For `CS(=O)(=O)N1CCN(Cc2cc3nc(-c4cccc5[nH]ncc45)nc(N4CCOCC4)c3s2)CC1` [GDC-0941] the same measures were 12.4, 12.9, 4.9, 2 and 7.1.
For `O=C1NC(=O)/C(=C/c2ccc3nccc(-c4ccncc4)c3c2)S1` [GSK1059615] the same measures were 0.4, 1.7, 0.4, 0.6 and 0.8.
Regarding `C[C@@H](Oc1cc(-c2cnn(C3CCNCC3)c2)cnc1N)c1c(Cl)ccc(F)c1Cl` [Crizotinib], in the test on SW480 (setting [2]), the “Synergy Score SW480” value worked out at 8.9. In the test on DLD-1 (setting [3]), the “Synergy Score DLD-1” value stood at 13.4. The “Synergy Score HCT-116” value in the test with HCT 116 (setting [4]) was 7.7. Moreover, the “Synergy Score SNU-C2B” value with SNU-C2B (setting [5]) is on record as 5.4.
As to `C[C@]1(c2nc3c(C(N)=O)cccc3[nH]2)CCCN1` [ABT-888], the “Synergy Score LS-411N” value with LS-411N (setting [1]) is given as 0.7. Further, the “Synergy Score SW480” value with SW480 (setting [2]) stood at 0. Also, the “Synergy Score SNU-C2B” value in the test on SNU-C2B (setting [5]) stood at 0.1.
